Drawing on US20250090540A1, “PI3K-ALPHA INHIBITORS AND METHODS OF USE THEREOF” (Relay Therapeutics, Inc., priority 2021, published 2025), this text covers IC50 for 61 molecules.

Test [1] concerns the target H1047R PIK3CA enzyme (Homo sapiens, UniProt P42336, H1047R). In words: ADP-Glo Biochemical PIK3CA Kinase Assay. (ADP-Glo turns the ADP formed in a reaction into a luminescent signal.)
A short description of test [2]: cells. The note with it: Homo sapiens, MCF-10A, read-out: MCF10A I50.
The mark [3] stands for this setting: ADP-Glo biochemical PIK3CA kinase assay.

SMILES strings stand for the structures. pIC50: −log10 of the molar value. Like-named read-outs stand apart in the source and are kept apart here.

Chain of H1047R PIK3CA enzyme (P42336 whole entry H1047R): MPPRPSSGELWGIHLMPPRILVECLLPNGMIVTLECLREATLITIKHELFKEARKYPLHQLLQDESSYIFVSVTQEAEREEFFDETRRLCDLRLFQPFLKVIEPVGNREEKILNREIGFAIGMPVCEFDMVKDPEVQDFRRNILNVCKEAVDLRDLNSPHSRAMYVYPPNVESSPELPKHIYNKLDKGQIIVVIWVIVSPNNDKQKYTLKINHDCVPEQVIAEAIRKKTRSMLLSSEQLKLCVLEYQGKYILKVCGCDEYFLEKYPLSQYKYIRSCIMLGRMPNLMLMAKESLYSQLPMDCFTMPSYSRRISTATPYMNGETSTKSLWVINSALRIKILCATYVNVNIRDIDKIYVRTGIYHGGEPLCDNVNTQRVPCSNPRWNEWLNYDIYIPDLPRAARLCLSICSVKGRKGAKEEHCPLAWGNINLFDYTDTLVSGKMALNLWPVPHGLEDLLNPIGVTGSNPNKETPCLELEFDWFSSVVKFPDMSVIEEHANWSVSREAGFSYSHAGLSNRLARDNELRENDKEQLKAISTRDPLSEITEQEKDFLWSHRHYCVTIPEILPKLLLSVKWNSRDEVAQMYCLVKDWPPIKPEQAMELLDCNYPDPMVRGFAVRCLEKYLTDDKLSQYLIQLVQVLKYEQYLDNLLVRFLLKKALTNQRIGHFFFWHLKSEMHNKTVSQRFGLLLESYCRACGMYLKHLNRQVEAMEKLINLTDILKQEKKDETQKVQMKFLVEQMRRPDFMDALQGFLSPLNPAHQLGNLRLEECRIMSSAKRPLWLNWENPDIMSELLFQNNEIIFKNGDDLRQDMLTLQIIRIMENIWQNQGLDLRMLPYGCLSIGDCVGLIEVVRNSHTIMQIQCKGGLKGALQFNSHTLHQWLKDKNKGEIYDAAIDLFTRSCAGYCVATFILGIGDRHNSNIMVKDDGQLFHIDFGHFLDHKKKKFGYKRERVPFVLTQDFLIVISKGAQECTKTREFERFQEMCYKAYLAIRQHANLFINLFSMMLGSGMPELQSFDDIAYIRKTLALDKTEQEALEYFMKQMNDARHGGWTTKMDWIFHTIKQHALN
Chain of H1047R PIK3CA enzyme (P27986 whole entry partner): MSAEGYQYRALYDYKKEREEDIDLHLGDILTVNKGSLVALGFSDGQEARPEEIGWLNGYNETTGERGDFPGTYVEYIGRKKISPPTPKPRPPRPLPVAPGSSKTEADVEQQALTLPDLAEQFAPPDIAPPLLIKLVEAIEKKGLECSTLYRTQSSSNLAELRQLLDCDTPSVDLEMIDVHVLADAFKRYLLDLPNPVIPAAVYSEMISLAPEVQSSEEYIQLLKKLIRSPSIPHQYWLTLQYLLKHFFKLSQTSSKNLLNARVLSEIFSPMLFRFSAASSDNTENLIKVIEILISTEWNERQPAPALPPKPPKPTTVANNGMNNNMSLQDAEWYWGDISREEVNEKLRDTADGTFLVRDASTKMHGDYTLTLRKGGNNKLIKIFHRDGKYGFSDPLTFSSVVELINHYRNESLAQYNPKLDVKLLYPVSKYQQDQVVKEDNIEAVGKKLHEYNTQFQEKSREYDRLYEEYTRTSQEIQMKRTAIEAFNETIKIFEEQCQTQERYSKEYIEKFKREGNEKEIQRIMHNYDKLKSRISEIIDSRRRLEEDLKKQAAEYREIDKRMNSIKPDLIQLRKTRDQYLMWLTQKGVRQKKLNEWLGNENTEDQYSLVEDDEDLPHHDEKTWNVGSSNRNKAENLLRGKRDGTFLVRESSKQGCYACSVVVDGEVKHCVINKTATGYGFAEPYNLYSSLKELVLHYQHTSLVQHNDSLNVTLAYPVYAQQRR

On to `Cc1ccccc1Nc1ncc(C(=O)N[C@@H]2CC(=O)N(C)C2)cc1NC(=O)c1csc2ccccc12` (racemic) [I-326], for which the pIC50 in test [1] is 6.30 to 7.00; in test [2], 5.00 to 5.30. The corresponding values for `C[C@@H](NC(=O)c1cnc(N2CCOc3ccccc32)c(NC(=O)c2csc3ccccc23)c1)c1ccccn1` (racemic) [I-337] are 6.30 to 7.00 and 5.00 to 5.30.

For the molecule `O=C1C[C@@H](CNC(=O)c2cc(F)cc(C(F)(F)F)c2)[C@H](c2cc(F)ccc2Cl)N1` (racemic) [I-801, N-{[(2R,3S)-2-(2-chloro-5-fluorophenyl)-5-oxopyrrolidin-3-yl]methyl}-3-fluoro-5-(trifluoromethyl)benzamide], the pIC50 is 6.30 to 7.00 in test [1] and 5.30 to 6.00 in test [2]. Take `Cc1ccccc1Nc1ncc(C(=O)N[C@@H]2CC(=O)N(C)C2)cc1NC(=O)c1csc2ccccc12` (single isomer, unassigned) [I-435]: the pIC50 in test [1] (setting [3]) was no less than 7.00; in test [2], 5.00 to 5.30. Consider `Cc1ccccc1Nc1ncc(C(=O)N[C@H]2CCN(C)C2)cc1NC(=O)c1cc(F)cc(C(F)(F)F)c1` (stereo in doubt) [I-67], for which the pIC50 was 6.00 to 6.30 in test [1] and 4.44 to 5.00 in test [2]. The like results for `C[C@@H](NC(=O)c1cnc(N2CCOc3ccccc32)c(NC(=O)c2csc3ccccc23)c1)c1cccnc1` (stereo in doubt) [I-257] were, in that order, no less than 7.00 and 5.00 to 5.30. The corresponding values for `C[C@H](NC(=O)c1cnc(N2CCOc3ccccc32)c(NC(=O)c2csc3ccccc23)c1)c1cccnc1` (stereo in doubt) [I-258] are 6.30 to 7.00 and 4.44 to 5.00. For the molecule `C[C@@H](NC(=O)c1cnc(N2CCOc3ccccc32)c(NC(=O)c2csc3ccccc23)c1)c1ccncc1` (stereo in doubt) [I-314], the pIC50 was 6.30 to 7.00 in test [1] and 5.00 to 5.30 in test [2]. The corresponding values for `C[C@H](NC(=O)c1cnc(N2CCOc3ccccc32)c(NC(=O)c2csc3ccccc23)c1)c1ccncc1` (stereo in doubt) [I-315] are 6.00 to 6.30 and 4.44 to 5.00. The corresponding values for `CNC(=O)c1cnc(Nc2ccccc2C)c(NC(=O)c2cc(F)cc(C(F)(F)F)c2)c1` [I-1] are 6.00 to 6.30 and 5.00 to 5.30.

In the case of `CNC(=O)c1cnc(Nc2ccccc2C)c(NC(=O)c2cc(Cl)cc(Cl)c2)c1` [I-6], the pIC50 was 6.00 to 6.30 in test [1] and 5.00 to 5.30 in test [2]. The like results for `Cc1ccccc1Nc1ncc(-c2cncnc2)cc1NC(=O)c1cc(F)cc(C(F)(F)F)c1` [I-7] were, in that order, 6.30 to 7.00 and 5.00 to 5.30.

Take `CNC(=O)c1cnc(Nc2ccccc2C)c(NS(=O)(=O)c2ccc(F)cc2C)c1` [I-8]: the pIC50 in test [1] was 6.30 to 7.00; in test [2], 5.30 to 6.00. As for `Cc1ccccc1Nc1ncccc1NC(=O)c1cc(F)cc(C(F)(F)F)c1` [I-11], the values for the pIC50 in test [1] and in test [2] were 5.00 to 6.00 and 4.44 to 5.00, respectively. Turning to `Cc1ccccc1Nc1ncc(C2CC2)cc1NC(=O)c1cc(F)cc(C(F)(F)F)c1` [I-21], the pIC50 in test [1] was 5.00 to 6.00; in test [2], 4.44 to 5.00.

For `CNC(=O)c1cnc(Nc2ccccc2C)c(NC(=O)C(O)c2cccc(F)c2)c1` (stereo not shown) [I-27], the pIC50 in test [1] is 6.00 to 6.30; in test [2], 5.30 to 6.00. The like results for `Cc1ccccc1Nc1ncc(C(N)=O)cc1NC(=O)c1cc(F)cc(C(F)(F)F)c1` [I-28] were, in that order, 6.00 to 6.30 and 5.00 to 5.30. The like results for `CNC(=O)c1cnc(Nc2ccccc2C)c(NC(=O)Cc2ccc(O)c(O)c2)c1` [I-30] were, in that order, 6.00 to 6.30 and 5.00 to 5.30.

Molecule `Cc1ccccc1Nc1ncc(C(=O)NCc2cn(C)nc2C)cc1NC(=O)c1cc(F)cc(C(F)(F)F)c1` [I-746] had a pIC50 in test [1] (setting [3]) of 5.00 to 6.00. On the same count and under the same terms, the value for `Cc1ccccc1Nc1ncc(C(=O)NCc2nnc3ccccn23)cc1NC(=O)c1cc(F)cc(C(F)(F)F)c1` [I-759] was 5.00 to 6.00; that for `CNC(=O)c1cnc(Nc2ccccc2C)c(NC(=O)c2cc(Cl)nc(C(F)(F)F)c2)c1` [I-762] was 6.00 to 6.30; that for `CNC(=O)c1cnc(Nc2ccccc2C)c(NC(=O)c2coc3c(F)cc(Cl)cc23)c1` [I-766] was 6.00 to 6.30. On the same count and under the same terms, the value for `Cc1ccccc1Nc1ncc(-c2ccn[nH]2)cc1NC(=O)c1cc(F)cc(C(F)(F)F)c1` [I-767] was 5.00 to 6.00; that for `CNC(=O)c1cnc(Nc2cccc3[nH]ccc23)c(NC(=O)c2csc3ccccc23)c1` [I-768] was 6.00 to 6.30. Still for that read-out and setting: the value for `Cc1ccccc1Nc1cc(=O)n(CCc2ccncn2)cc1NC(=O)c1csc2ccccc12` [I-769] was 5.00 to 6.00; that for `CC1COCCN1c1ncc(C(=O)N[C@H]2C[C@@H](C(N)=O)C2)cc1NC(=O)c1csc2ccccc12` (stereo partly shown) [I-770] was 5.00 to 6.00; that for `COC1CN(c2ncc(C(=O)N[C@H]3C[C@@H](C(C)=O)C3)cc2NC(=O)c2csc3ccccc23)C1` [I-771] was 5.00 to 6.00.

In test [1] (setting [3]), `CNC(=O)c1cnc(Nc2cc(F)ccc2Cl)c(NC(=O)c2csc3ccccc23)c1` [I-775] showed a pIC50 of 5.00 to 6.00. Still for that read-out and setting: the value for `CNC(=O)c1cnc(Nc2ccccc2C)c(N(CC(N)=O)C(=O)c2csc3ccccc23)c1` [I-776] was 5.00 to 6.00. Still for that read-out and setting: the value for `COc1cncc(CNC(=O)c2cc(NC(=O)c3csc4ccccc34)n(CC3CCC3)c(=O)c2)c1` [I-777] was 4.00 to 5.00. Same read-out and setting: the value for `Nc1c2c(nn1C(=O)c1cc(F)cc(C(F)(F)F)c1)CCCC2` [I-778] was 4.00 to 5.00. Molecule `Cc1nn(C(=O)c2cc(F)cc(C(F)(F)F)c2)c(N)c1-c1ccccc1` [I-779] gave a pIC50 in test [1] (setting [3]) of 5.00 to 6.00. Still for that read-out and setting: the value for `Nc1cnc(Nc2cc(F)ccc2Cl)c(NC(=O)c2cc(F)cc(C(F)(F)F)c2)c1` [I-780] was 4.00 to 5.00; that for `O=C(Nc1cnccc1-n1cccn1)c1cc(F)cc(C(F)(F)F)c1` [I-781] was 5.00 to 6.00.

`CC(C)(O)c1cnc(Nc2cc(F)ccc2Cl)c(NC(=O)c2cc(F)cc(C(F)(F)F)c2)c1` [I-782] showed a pIC50 in test [1] (setting [3]) of 5.00 to 6.00. The molecule `Nc1cnc(Nc2cc(F)ccc2Cl)c(NC(=O)c2nsc3ccccc23)c1` [I-784] showed a pIC50 in test [1] (setting [3]) of 4.00 to 5.00. For `O=C(NCc1ccccc1CN1CCCCC1)c1cc(F)cc(C(F)(F)F)c1` [I-785], the pIC50 in test [1] (setting [3]) was 4.00 to 5.00.

As for `O=C(Nc1cc(C2CC2)nn1-c1ccccc1)c1cc(F)cc(C(F)(F)F)c1` [I-786], the pIC50 in test [1] (setting [3]) was 4.00 to 5.00. Still for that read-out and setting: the value for `Cc1cccc(-n2nc(C)cc2NC(=O)c2cc(F)cc(C(F)(F)F)c2)c1` [I-787] was 4.00 to 5.00; that for `O=C(Nc1cc(C2CC2)nn1-c1ccccc1F)c1cc(F)cc(C(F)(F)F)c1` [I-788] was 4.00 to 5.00. Turning to `Cc1cc(NC(=O)c2cc(F)cc(C(F)(F)F)c2)n(-c2ccccc2F)n1` [I-789], the pIC50 in test [1] (setting [3]) is 5.00 to 6.00. The same measure, in the same setting: the value for `COc1nccc(NC(=O)c2cc(F)cc(C(F)(F)F)c2)c1Nc1ccccc1Cl` [I-790] was 5.00 to 6.00. Take `Nc1cc(-c2ccc(F)cc2)nn1-c1nc2ccccc2[nH]1` [I-792]: the pIC50 in test [1] (setting [3]) was 5.00 to 6.00. The same measure, in the same setting: the value for `N#Cc1cccc(NC(=O)c2cc(F)cc(C(F)(F)F)c2)c1Cc1ccccc1Cl` [I-793] was 6.30 to 7.00. The same measure, in the same setting: the value for `O=C(Nc1ccn2cnnc2c1Nc1ccccc1Cl)c1cc(F)cc(C(F)(F)F)c1` [I-794] was 4.00 to 5.00; that for `CNC(=O)c1cnc(Nc2cc(F)ccc2Cl)c(NC(=O)N2CCc3ccccc32)c1` [I-797, N-{2-[(2-chloro-5-fluorophenyl)amino]-5-(methylcarbamoyl)pyridin-3-yl}-2,3-dihydro-1H-indole-1-carboxamide] was 4.00 to 5.00.

With `CNC(=O)c1cnc(Nc2ccccc2C)c(NC(=O)NC23C[C@H]4C[C@@H](C2)C[C@@H](C3)C4)c1` [I-798], the pIC50 in test [1] (setting [3]) was 5.00 to 6.00. `CNC(=O)c1cnc(Nc2cc(F)ccc2Cl)c(NC(=O)NC23C[C@H]4C[C@@H](C2)C[C@@H](C3)C4)c1` [I-799]: the pIC50 in test [1] is 4.00 to 5.00. Take `O=C(Nc1cc(-c2cnn(C(F)F)c2)cnc1Nc1cc(F)ccc1Cl)c1cc(F)cc(C(F)(F)F)c1` [I-803, N-(2-((2-chloro-5-fluorophenyl)amino)-5-(1-(difluoromethyl)-1H-pyrazol-4-yl)pyridin-3-yl)-3-fluoro-5-(trifluoromethyl)benzamide]: the pIC50 in test [1] was 5.00 to 6.00. The same measure, in the same setting: the value for `O=C(Nc1cc(-c2ccc3ncnn3c2)cnc1Nc1cc(F)ccc1Cl)c1cc(F)cc(C(F)(F)F)c1` [I-804] was 4.00 to 5.00; that for `CNC(=O)c1cnc(Nc2cc(F)ccc2Cl)c(Nc2nccc3c(Cl)cccc23)c1` [I-805, 6-((2-chloro-5-fluorophenyl)amino)-5-((5-chloroisoquinolin-1-yl)amino)-N-methylnicotinamide] was 4.00 to 5.00. Same read-out and setting: the value for `O=C(Nc1ccnn1-c1ccccc1)c1cc(F)cc(C(F)(F)F)c1` [I-806] was 4.00 to 5.00; that for `O=C(Nc1cccc(=O)n1Cc1ccccc1Cl)c1csc2ccccc12` [I-807] was 4.00 to 5.00. The same measure, in the same setting: the value for `CNC(=O)c1cnc(Nc2cc(F)ccc2Cl)c(NC(=O)c2cc(F)cc(C(F)(F)F)c2)c1` [I-810] was 4.00 to 5.00; that for `O=C(Nc1cc(-c2ccc3ncnn3c2)cnc1Nc1cc(CO)ccc1Cl)c1cc(F)cc(C(F)(F)F)c1` [I-811] was 4.00 to 5.00. As for `CNC(=O)c1cnc(NC(CO)CCO)c(NC(=O)c2cc(F)cc(C(F)(F)F)c2)c1` (stereo not shown) [I-814], the pIC50 in test [1] is 4.00 to 5.00. Molecule `O=C1CCCC(c2nc3c(F)cc(C(F)(F)F)cc3[nH]2)N1Cc1cc(F)ccc1Cl` (stereo not shown) [I-815] had a pIC50 in test [1] of 4.00 to 5.00. On the same count and under the same terms, the value for `O=C(Nc1cc(-c2ccc3ncnn3c2)cnc1NC(CO)CCO)c1cc(F)cc(C(F)(F)F)c1` (stereo not shown) [I-818] was 4.00 to 5.00. Same read-out and setting: the value for `O=C1NCc2ccccc2C1c1ccccc1-c1nc2c(F)cc(C(F)(F)F)cc2[nH]1` (stereo not shown) [I-820, 4-{2-[4-fluoro-6-(trifluoromethyl)-1H-1,3-benzodiazol-2-yl]phenyl}-1,2,3,4-tetrahydroisoquinolin-3-one] was 4.00 to 5.00; that for `CNC(=O)c1cnc(-n2c(=O)ccc3ccccc32)c(NC(=O)c2cc(F)cc(C(F)(F)F)c2)c1` [I-822] was 4.00 to 5.00; that for `CNC(=O)c1cc(NC(=O)c2cc(F)cc(C(F)(F)F)c2)c(Nc2cc(F)ccc2Cl)s1` [I-827, 5-((2-chloro-5-fluorophenyl)amino)-4-(3-fluoro-5-(trifluoromethyl)benzamido)-N-methylthiophene-2-carboxamide] was 6.00 to 6.30.
